Measured values taken from patent publication US20060211761A1, “Hmg-coa-reductase inhibitors” (priority 2002, published 2006).
Where a name gives a salt, the structure may show the parent alone.

molecular target: HMG CoA Reductase; test: HMG CoA reductase inhibition, similar experiments with phenylhydroxy compounds of U.S. Pat. No. 5,385,929, Table 2; format: biochemical; conditions: compared to atorvastatin
Procedure: (§1) Res. Comm., 50, 859 (1973).
(§2) HMG-CoA reductase is regarded as a rate-limiting enzyme in cholesterol biosynthesis, catalyzing the following reaction: [^14C]HMG-CoA+2NADPH+2H+[^14C]mevanolate+CoA+2NADP+microsomes, utilizing 2.5 mM [^14C] HMG-CoA as a substrate.
(§3) The reaction was carried out in presence of 100 mM KH2PO4, 20 mM G-6-P, 2.5 mM NADPH, 10 mM EDTA, 5 mM DTT and […], at 37° C. for 15 minutes and quantitating [^14C] mevalonate as an end product.

SMILES | IC50
CC(C)c1c(C(=O)Nc2ccccc2O)c(-c2ccccc2)c(-c2ccc(F)cc2)n1CC[C@@H](O)C[C@@H](O)CC(=O)O [Ortho-hydroxyatorvastatin] | 0.264 nM
CC(C)c1c(C(=O)Nc2cccc(O)c2)c(-c2ccccc2)c(-c2ccc(F)cc2)n1CCC(O)CC(O)CC(=O)O (stereo not drawn) [Meta-hydroxyatorvastatin] | 0.199 nM
CC(C)c1c(C(=O)Nc2ccc(O)cc2)c(-c2ccccc2)c(-c2ccc(F)cc2)n1CC[C@@H](O)C[C@@H](O)CC(=O)O [Para-hydroxyatorvastatin] | 0.476 nM

molecular target: HMG-CoA reductase; test: in-vitro HMG-CoA reductase enzyme assay ([14C]mevalonate formation, liver microsomes), Table 1; format: biochemical; conditions: preincubated 37° C. 30 minutes, [14C] HMG-CoA substrate
Procedure: as §1, §2, §3

SMILES | IC50
COc1ccc(NC(=O)c2c(-c3ccccc3)c(-c3ccccc3)n(CC[C@@H](O)C[C@@H](O)CC(=O)O)c2C(C)C)c(OC)c1 [S.No. 5, 7-[3-(2.4-dimethoxyphenylcarbamoyl)-4.5-diphenyl-2-(1-methylethyl-pyrrol-1-yl]-3R,5R-dihydroxy-heptanoic acid calcium salt] | 0.0563 nM
COc1cc(NC(=O)c2c(-c3ccccc3)c(-c3ccc(F)cc3)n(CC[C@@H](O)C[C@@H](O)CC(=O)O)c2C(C)C)cc(OC)c1 [Example 1, 7-[3-(3,5-dimethoxyphenylcarbamoyl)-5-(4-fluorophenyl)-2-(1-methylethyl)4-phenyl-pyrrol-1-yl]-3R,5R-dihydroxy-heptanoic acid calcium salt] | 0.022 nM
COc1ccc(NC(=O)c2c(-c3ccccc3)c(-c3ccc(F)cc3)n(CC[C@@H](O)C[C@@H](O)CC(=O)O)c2C2CC2)c(OC)c1 [S.No. 3, 7-[3-(2,4-dimethoxyphenylcarbamoyl)-5-(4-fluorophenyl)-2-(cyclopropyl)-4-phenyl-pyrrol-1-yl]-3R,5R-dihydroxy-heptanoic acid calcium salt] | 0.00948 nM
